In the NIST ThermoML archive (doi:10.1016/j.jct.2013.08.002):
± gives the expanded uncertainty stated by the source.

Test: relative permittivity at various frequencies (dimensionless)
Conditions: 101 kPa, Liquid, Frequency=0.01 MHz, Coaxial cylinder capacitor

With `NCCNCCO` [N-(2-aminoethyl)ethanolamine] the relative permittivity (293.2 K) was 21.51 ± 0.2, the relative permittivity (299.2 K) was 19.87 ± 0.2 and the relative permittivity (304.2 K) was 18.18 ± 0.2. The relative permittivity (308.2 K) was 17.09 ± 0.2, the relative permittivity (314.2 K) was 15.84 ± 0.2 and the relative permittivity (320.2 K) was 14.64 ± 0.2. It also gave a relative permittivity (323.2 K) of 13.97 ± 0.2, a relative permittivity (330.2 K) of 12.89 ± 0.2 and a relative permittivity (333.2 K) of 12.3 ± 0.2. For the same compound, the relative permittivity (339.2 K) was 11.37 ± 0.2, the relative permittivity (343.2 K) was 10.77 ± 0.2 and the relative permittivity (348.2 K) was 10.19 ± 0.2.
